Laboratory results taken from patent US20190374533A1, “COMPOUNDS AND METHODS FOR INHIBITING NHE-MEDIATED ANTIPORT IN THE TREATMENT OF DISORDERS ASSOCIATED WITH FLUID RETENTION OR SALT OVERLOAD AND GASTROINTESTINAL TRACT DISORDERS” (Ardelyx, Inc., priority 2008, published 2019).
Structures can show the parent of a compound that is named as a salt. Where two headings read alike, the source gives them in different places.

Assays:
[1] = molecular target: T1, human NHE3 (Homo sapiens, UniProt P48764); test: Cell-based assay of NHE-3 activity (pre-incubation inhibition), human; conditions: human Preincubation assay; for IC50: PS120 fibroblasts expressing human NHE3 and NHERF2, 0-30 μM test compound
T1 construct: host or cells: PS120 fibroblasts
T1 sequence (P48764 26-834): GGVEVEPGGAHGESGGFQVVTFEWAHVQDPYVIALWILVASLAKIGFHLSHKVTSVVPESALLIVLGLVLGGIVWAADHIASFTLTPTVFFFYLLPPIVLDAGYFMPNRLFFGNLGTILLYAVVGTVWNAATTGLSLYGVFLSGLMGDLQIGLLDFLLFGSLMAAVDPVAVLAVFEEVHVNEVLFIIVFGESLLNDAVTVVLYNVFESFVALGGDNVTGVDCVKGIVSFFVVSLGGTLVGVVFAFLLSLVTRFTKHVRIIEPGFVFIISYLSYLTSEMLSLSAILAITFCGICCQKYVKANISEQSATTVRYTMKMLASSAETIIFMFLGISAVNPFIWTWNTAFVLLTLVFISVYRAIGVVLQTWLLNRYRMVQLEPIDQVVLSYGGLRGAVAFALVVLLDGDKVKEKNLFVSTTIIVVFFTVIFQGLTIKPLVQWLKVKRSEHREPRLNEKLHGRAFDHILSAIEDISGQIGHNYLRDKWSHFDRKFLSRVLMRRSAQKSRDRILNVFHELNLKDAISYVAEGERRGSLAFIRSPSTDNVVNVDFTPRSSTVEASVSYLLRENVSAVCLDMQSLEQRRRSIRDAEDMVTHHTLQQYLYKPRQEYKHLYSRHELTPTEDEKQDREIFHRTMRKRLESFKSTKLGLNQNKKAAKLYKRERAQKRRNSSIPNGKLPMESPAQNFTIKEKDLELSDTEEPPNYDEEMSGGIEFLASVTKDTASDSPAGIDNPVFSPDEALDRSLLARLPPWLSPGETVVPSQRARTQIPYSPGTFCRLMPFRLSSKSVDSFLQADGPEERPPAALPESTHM
T1 sequence (Q99653 2-195 partner limits assumed): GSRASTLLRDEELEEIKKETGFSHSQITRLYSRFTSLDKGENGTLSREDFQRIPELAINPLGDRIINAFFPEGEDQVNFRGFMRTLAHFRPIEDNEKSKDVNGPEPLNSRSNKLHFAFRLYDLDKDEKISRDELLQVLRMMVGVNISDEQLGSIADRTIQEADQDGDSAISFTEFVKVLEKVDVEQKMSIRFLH
Description: Rat and human NHE-3-mediated Na^+-dependent H^+ antiport was measured using a modification of the pH sensitive dye method originally reported by Paradiso (Proc. Natl. Acad. Sci. USA. (1984) 81(23): 7436-7440). PS120 fibroblasts stably expressing human NHE3 and NHERF2 were obtained from Mark Donowitz (Baltimore, Md.). Opossum kidney (OK) cells were obtained from the ATCC and propagated per their instructions. The rat NHE-3 gene (GenBank M85300) was introduced into OK cells via electroporation, and cells were seeded into 96 well plates and grown overnight. Medium was aspirated from the wells then incubated for 30 min at 37° C. with NH4Cl-HEPES buffer (20 mM NH4Cl, 80 mM NaCl, 50 mM HEPES, 5 mM KCl, 2 mM CaCl2, 1 mM MgCl2, pH 7.4) containing 5 μM BCECF-AM. Cells were washed once with Ammonium free, Na^+-free HEPES (100 mM choline, 50 mM HEPES, 10 mM glucose, 5 mM KCl, 2 mM CaCl2, 1 mM MgCl2, pH 7.4) and incubated in the same buffer for 10 minutes at room temperature to lower intracellular pH with 0-30 μM test compound. […] Changes in intracellular pH were monitored using a FLIPR Tetra® (Molecular Devices, Sunnyvale, Calif.) by excitation at λex 439 to 505 nm, and measuring BCECF fluorescence at λem 538 nm. The initial rate of the fluorescence ratio change was used as a measure of NHE-mediated Na^+/H^+ activity, and reported as the change in fluorescence ratio per minute.

[2] = test system: fecal water content; test: Pharmacodynamic model: effect of test compounds on fecal water content; assay type: in vivo, rat; conditions: female Sprague Dawley rats, 3 mg/kg oral, feces collected 16 hrs; for % Fecal water: mean of 6
[3] = Determination of compound remaining in feces; assay type: in vivo, rat; conditions: 0.1 mg/kg oral gavage; for recovery in 72-hour fecal samples: three rats; for dose excreted: Sprague-Dawley, rat, faeces, po, 0.1 mg/kg, read-out: % Recovery ± SD from 72-hour fecal samples
Description: Sprague-Dawley rats were orally gavaged with test article. A low dose of compound (0.1 mg/kg) was selected so that feces would remain solid and practical to collect. For both Examples 202 and 203, three rats were dosed, and following dosage of compounds, the rats were placed in metabolic cages for 72 hours. After 72 hours, fecal samples were recovered and dried for 48 hours. Dried fecal samples were ground to a powdered from, and for each rat, 10 replicates of 50 mg samples were extracted with acetonitrile. Insoluble materials were removed by centrifugation and supernatants analyzed by LC/MS/MS and compared against a standard curve to determine compound concentration. The amount of compound actually dosed was determined by LC/MS/MS analysis of the dosing solutions. The total amount of compound present in the 72-hour fecal samples was compared to the total amount of compound dosed, and reported as percentage of total dose recovered.

[4] = test system: absorption of sodium from the intestinal lumen; test: Inhibition of intestinal sodium absorption in mice; assay type: in vivo, mouse; conditions: CD-1 mice, 15 mg/kg oral gavage twice daily for 3 days
[5] = day 3, normalized to dietary sodium intake

Row | Structure (SMILES) | % inhibition [1] | IC50 [1] [nM] | % Fecal water (% of control) [2] | % Fecal water [2] [%] | recovery in 72-hour fecal samples [3] | dose excreted ([3]; Rat 1) [%] | dose excreted ([3]; Rat 2) [%] | dose excreted ([3]; Rat 3) [%] | Fecal fluid content (Δ from vehicle) ([4]; day 3) | Fecal Na Excretion (% of vehicle) [4, 5] | Urinary Na Excretion (% of vehicle) [4, 5]
1 | CN1Cc2c(Cl)cc(Cl)cc2[C@H](c2cccc(S(=O)(=O)NCCOCCOCCNC(=O)NCCCCNC(=O)NCCOCCOCCNS(=O)(=O)c3cccc([C@@H]4CN(C)Cc5c(Cl)cc(Cl)cc54)c3)c2)C1 (single isomer, unassigned) [Example 202, (S or R)—N,N′-(10,17-dioxo-3,6,21,24-tetraoxa-9,11,16,18-tetraazahexacosane-1,26-diyl)bis(3-((S)-6,8-dichloro-2-methyl-1,2,3,4-tetrahydroisoquinolin-4-yl)benzenesulfonamide) bis-hydrochloride salt] | C (>70%) | < 100 | 134% of control | 63 | near quantitative recovery | 93.8 ± 11.8 | 90.5 ± 5.5 | 92.4 ± 10.6 | – | – | –
2 | CN1Cc2c(Cl)cc(Cl)cc2[C@H](c2cccc(S(=O)(=O)NCCOCCOCCNC(=O)Nc3ccc(NC(=O)NCCOCCOCCNS(=O)(=O)c4cccc([C@@H]5CN(C)Cc6c(Cl)cc(Cl)cc65)c4)cc3)c2)C1 (single isomer, unassigned) [Example 203, (S or R)—N,N′-(2,2′-(2,2′-(2,2′-(1,4-phenylenebis(azanediyl))bis(oxomethylene)bis(azanediyl)bis(ethane-2,1-diyl))bis(oxy)bis(ethane-2,1-diyl))bis(oxy)bis(ethane-2,1-diyl))bis(3-((S or R)-6,8-dichloro-2-methyl-1,2,3,4-tetrahydroisoquinolin-4-yl)benzenesulfonamide) bis-hydrochloride salt] | C (>70%) | < 100 | 130% of control | 61 | near quantitative recovery | 100 ± 6.7 | 75.8 ± 8.2 | 104 ± 7.1 | C (>10) | C (>200%) | C (<50%)
